Measured values: patent publication US20250263733A1, “TARGETED GENE INTEGRATION IN PLANTS” (LIMAGRAIN EUROPE, priority 2021, published 2025)

System: Ubi7DL gene
Test: NGS sequencing of transformed plantlets for mutations at the gRNA target site around the STOP codon of Ubi7DL
Design: species or system wheat var. Fielder
Conditions: 59 of 97 events; multiplex G1, G2, G3 guides with Cas9; all mutations generated with G3
From the text: The strategy for GT at Ubi7DL is outlined in FIG. 1 and is based on the method of in planta GT (Fauser et al. 2012). A Cas9 gRNA (G3 SEQ ID NO: 8) that efficiently makes a DNA double strand break (DSB) around the STOP codon of the Ubi7DL gene was first identified by Agrobacterium-mediated transformation into wheat var. Fielder with a binary plasmid containing a TaU6-tRNA multiplex guide (SEQ ID NO: 10) expressing 3 guides G1 (SEQ ID NO: 6), G2 (SEQ ID NO: 7) and G3 (SEQ ID NO: 8) under control of promoter TaU6 (SEQ ID NO: 9), together with ZmUbi (SEQ ID NO: 11)-Cas9 (SEQ ID NO: 13)-nos terminator (SEQ ID NO: 12) and pActin-Bar-nos cassettes. These 3 target sites are around the STOP codon of Ubi7DL. Fielder wheat cultivar was transformed with these Agrobacterium strains essentially as described by WO2000/063398.

G3: Cas9 gRNA (SEQ ID NO: 8) making a double strand break around the STOP codon of Ubi7DL (guide CAGGAGCTTACTGGCCACCA; listed as DNA, chemistry not given here; listed as Triticum aestivum) [Line G3]
independent transformation events with mutations at the target site: 61%
